Source: publication doi:10.1101/2024.10.01.616164v1 (biorxiv, 2024)
Where a name gives a salt, the structure may show the parent alone.

Assays:
LON-1 [1] = biological target: T1, LON-1 (Caenorhabditis elegans, UniProt Q09566); test: microscale thermophoresis; assay type: binding
T1 sequence (Q09566 24-312): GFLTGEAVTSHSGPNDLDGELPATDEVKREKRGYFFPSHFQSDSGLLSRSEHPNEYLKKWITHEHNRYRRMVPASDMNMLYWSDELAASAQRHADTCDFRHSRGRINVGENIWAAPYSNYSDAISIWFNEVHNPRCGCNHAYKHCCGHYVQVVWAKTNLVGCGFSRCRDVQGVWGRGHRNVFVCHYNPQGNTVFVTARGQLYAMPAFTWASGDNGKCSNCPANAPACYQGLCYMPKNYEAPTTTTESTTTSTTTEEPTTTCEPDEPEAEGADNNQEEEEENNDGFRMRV

LON-1 [2] = biological target: LON-1 (Caenorhabditis elegans, UniProt Q09566, V175A); test: biochemical
LON-1 (Caenorhabditis elegans, UniProt Q09566, V175A), sequence (Q09566 24-312 V175A): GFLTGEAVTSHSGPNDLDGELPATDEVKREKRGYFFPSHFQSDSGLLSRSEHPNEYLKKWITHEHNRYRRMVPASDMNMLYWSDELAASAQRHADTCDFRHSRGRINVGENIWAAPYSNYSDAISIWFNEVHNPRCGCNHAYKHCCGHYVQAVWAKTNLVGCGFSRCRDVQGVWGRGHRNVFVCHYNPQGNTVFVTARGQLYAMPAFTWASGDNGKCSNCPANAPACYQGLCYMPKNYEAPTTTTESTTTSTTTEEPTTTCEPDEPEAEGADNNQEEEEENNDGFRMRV

LON-1 [3] = biological target: LON-1 (Caenorhabditis elegans, UniProt Q09566, C207S); test: biochemical
LON-1 (Caenorhabditis elegans, UniProt Q09566, C207S), sequence (Q09566 24-312 C207S): as the sequence (Q09566 24-312 V175A) above, with A152V, C184S counted along it

LON-1 [4] = biological target: LON-1 (Caenorhabditis elegans, UniProt Q09566, C185Y); test: biochemical
LON-1 (Caenorhabditis elegans, UniProt Q09566, C185Y), sequence (Q09566 24-312 C185Y): as the sequence (Q09566 24-312 V175A) above, with A152V, C162Y counted along it

LON-1 [5] = biological target: LON-1 (Caenorhabditis elegans, UniProt Q09566, E153A); test: biochemical
LON-1 (Caenorhabditis elegans, UniProt Q09566, E153A), sequence (Q09566 24-312 E153A): as the sequence (Q09566 24-312 V175A) above, with E130A, A152V counted along it

`CC(C)CCC[C@@H](C)[C@H]1CC[C@H]2[C@@H]3CC=C4C[C@@H](OS(=O)(=O)O)CC[C@]4(C)[C@H]3CC[C@]12C` [cholesterol sulfate] was tested, and the Kd (LON-1 [1]) was ~19 µM, the Kd (LON-1 [2]) was 76 ± 24 µM and the Kd (LON-1 [3]) was 332 ± 145 µM. It also gave a Kd (LON-1 [4]) of 261 ± 92 µM and a Kd (LON-1 [5]) of 26 ± 8 µM.
`CCCCCCCCCCCCCCCC(=O)O` [palmitic acid] gave a Kd (LON-1 [1]) of ~430 µM.
